# “Also recorded” adds a separate entry of the source.
# Experiments:
# [1] = tested on: 158N cells; test: MTT cytotoxicity assay on 158N oligodendrocytes; format: cell-based, Murine; settings: Mus musculus, 0, 1, 10, 20, 50, 100 µM, mean of two parallel experiments, read-out: IC50 (viability of 158N cells)
# From the text: (§1) The cytotoxicity was estimated by the MTT assay against different oligodendrocytes, such as 158 JP and 158 N cells, and 7-ketocholesterol was the control. Different in vitro assays were used to estimate the redox activity, including the dihydroethidium (DHE), 2′,7′-dichlorodihydrofluorescein diacetate (H2-DCFDA), 2,2′-azinobis-3-ethylbenzothioazoline-6-sulphonate (ABTS), 2,2-diphenyl-2-picrylhydrazyl (DPPH), and the bleomycin-induced DNA damage assays.
# (§2) Murine oligodendrocytes (158N and 158JP) were seeded at 240,000 cells per 24-well plates and were grown using the Dulbecco’s Modified Eagle Medium supplemented with penicillin antibiotics (1% v/v, streptomycin) and fetal bovine serum (5% v/v) and kept at 37 °C an atmosphere containing 5% CO2 [3]. […] Organ ic sel enides 4 and 5 were prepared in DMSO and then diluted with DMEM up to 1 mM.
# The MTT assay was carried out on 158N and 158JP cells after one day of incubation with 7kc (50µM)/different concentrations (0, 1, 10, 20, 50, and 100 µM) of the o rganic selenides 4 an d 5 were. In live cells, the MTT is reduced to formazan by the succinate dehydrogenase mitochondrial enzy me. The microplate reader Tecan Sunrise (Tecan, Lyon, France) was used for the reading of the plates at 570 nm. The IC50 values and the maximu m concentrations without toxicity were estimated for organic selenides 4 and 5 from the respective dose-response curves.
# Table S1. Effect of the organoselenium compounds on the viability of 158N and 158JP […]
# The cytotoxicity was measured after two days of treatment with different concentrations (0, 1, 10, 20, 50, and 100 µM) of the organic selenides using the MTT assay. The IC50 was estimated as the mean of two parallel experiments;
# [2] = tested on: 158JP cells; test: MTT cytotoxicity assay on 158JP oligodendrocytes; format: cell-based, Murine; settings: mean of two parallel experiments
# From the text: as §1, §2
# The MTT assay was carried out on 158N and 158JP cells after one day of incubation with 7kc (50µM)/different concentrations (0, 1, 10, 20, 50, and 100 µM) of the o rganic selenides 4 an d 5 were. […] The microplate reader Tecan Sunrise (Tecan, Lyon, France) was used for the reading of the plates at 570 nm. […]
# The cytotoxicity was measured after two days of treatment with different concentrations (0, 1, 10, 20, 50, and 100 µM) of the organic selenides using the MTT assay. […]
# [3] = tested on: 158N cells; test: H2-DCFDA assay of ROS production (flow cytometry); format: cell-based, Murine; settings: for Effect on ROS level / H2-DCF intensity (in words): 158 N cells, 0–50 μM, vitamin E as control; for H2-DCFDA assay (% of control), ROS production: 158N cells, mean ± SD
# From the text: as §1
# (§3) The levels of ROS were monitored with the H2-DCFDA and DHE assays using flow cytometry. Briefly, 158 N cells were mixed with serial concentrations (0–50 μM) of compound 4 and compound 5 using Vitamin E as the control.
# ROS overproduction and O2•− were detected with DCF and DHE, respectively. Cultured cells were treated with trypsin re-suspended in PBS (10^6 cells/mL) and kept in the dark for a half-hour at 37°C with H2-DCFDA or DHE at 10 μM and 2 μM and cells were analyzed by flow cytometry.
# The green fluorescence of 2’,7’- dichlorofluorescein resulting from the oxidation of H2-DCFDA was analyzed by flow cytometry and collected through a 520/10-nm bandpass filter. DHE, a non-fluorescent compound, rapidly oxidized in ethidium under the action of O2•− to give 2-hydroxyethidium that intercalates with DNA giving red fluorescence of ethidium collected through a 590/10-nm bandpass filter using an excitation of 488 nm and an emission wavelength of 575 nm.
# Flomax (Partec) or FlowJo (Tree Star Inc.) software was used for th e data analysis.
# Table S2. Evaluation of the effects of compounds on ROS production by H2-DCFDA assay.
# H2-DCFDA assay (% of control)
# 158N Cells were cultured in the presence of different compounds (C1=10; C2= 20; C3=50 µM); Flow cytometry technique was used to evaluate ROS levels via staining cells with H2-DCF; data are shown as mean ± SD and expressed as % control; the significance of the difference between the DMSO and compounds. Treated cells are indicated by (Mann–Whitney test; *: P < 0.05); vitamin E (50 µM) was used as a positive control.
# [4] = tested on: 158N cells; test: DHE assay of superoxide anion (O2•−) production (flow cytometry); format: cell-based, Murine; settings: for DHE assay (% of positive cells), superoxide anion production: 158N cells, mean ± SD
# From the text: as §1, §3
# ROS overproduction and O2•− were detected with DCF and DHE, respectively. Cultured cells were treated with trypsin re-suspended in PBS (10^6 cells/mL) and kept in the dark for a half-hour at 37°C with H2-DCFDA or DHE at 10 μM and 2 μM and cells were analyzed by flow cytometry. […]
# Flomax (Partec) or FlowJo (Tree Star Inc.) software was used for th e data analysis. […]
# Table S3. Evaluation of the effects of compounds on superoxide anions (O2•− ) production […]
# DHE assay (% of positive cells)
# 158N Cells were grown in the presence of different compounds (C1=10; C2= 20; C3=50 µM); Flow cytometry techniques was used to estimate the O2•− production via staining with DHE; Data are shown as mean ± SD and expressed as % control; Significance of the difference between the DMSO and compounds. […]
# [5] = tested on: calf thymus DNA; test: Bleomycin-dependent DNA damage assay; format: biochemical; set-up: Bleomycin-dependent DNA damage assay (Abs.): scale not given here; settings: 2 mM tested compound; for Bleomycin-dependent DNA damage assay (Abs.): absorbance at 532 nm, means of 3 replicates; for Bleomycin-dependent DNA damage, % of Vitamin C: relative to L-ascorbic acid (2 mM)
# From the text: as §1
# (§4) Bleomycin-dependent DNA damage
# The assay was performed according to the reported method with minor modifications. The reaction mixture contained 0.5 mg/ml calf thymus DNA, 0.05 mg/ml b leomy cin sulfate, 5 mM magnesium chloride, 50 mM ferric chloride, 2 mM tested compound. L-ascorbic acid (2 mM) was used as a positive control. The mixture was incubated at 37 °C for 1 hour. The activity of test compounds was evaluated as malondialdehyde equivalents. Thiobarbituric acid reactive substances, which arose from deoxyribose degradation of DNA were assessed. The reaction was terminated by the addition of 0.05 ml 0.1 M EDTA. The color was developed by adding 0.5 ml of 1% w/v thiobarbituric acid and 0.5 ml of 25% v/v HCl (25% v/v). The tube was capped with a screw cap and heated at 80 °C for 30 min. After cooling in ice water, the mixture was then shaken and centrifuged and the extent of DNA damage was measured by an increase in absorbance at […]
# Table S4. The Bleomycin-dependent DNA damage assay.
# Compd. No. DNA damage assay % of Vitamin C […]
# a ascorbic acid is used as a standard for antioxidant activity; values are means of 3 replicates; b not detected.
# [6] = GPx-like activity assay (NADPH-coupled, H2O2 reduction); format: biochemical; settings: ebselen (41 µM) positive control
# Experimental: page 19: GPx -like activity The GPx-kit was purchased from Biodiagnostic (Egypt) and used according to the reported method. The sample was prepared by adding assay buffer and NADPH reagent (0 .1 ml; 24 μmol Glutathione, 4.8 μmol NADPH and12 units Glutathione reductase), and organic selenide 4 (0.01 ml, 41 μM). H2O2 (0.8 mM) was then added, and the absorbance was kinetically recorded every 1 min at wavelength 340 nm over three successive minutes. […]/min was calculated. Ebselen (41 μM) was used as the positive control. For colored organoselenium compounds, their absorbance was subtracted at the used wavelength. 0.008 0.007 0.006 0.005 0.004 0.003 0.002 0.001 0 Eb selen 4 5 Figure S11 . GPx-like activity assay (μM. min-1). The reduction of H2O2 by GPx-like activity was tracked by […] of glutathione disulfide (GSSG) and NADPH to glutathion e (GSH, reduced form) and NADP+, respectively. The latter was detected by a decrease in the absorbance at 340 nm. References 1. […], Jacob C. Sulfur, selenium and tellurium pseudopeptides: synthesis and biological evaluation. Bioo rg. Med. Chem. 22(14), 3610-3619 (2014). 2. […]. Synthesis and anti-tumor evaluation of novel organoselenocyanates and symmetrical diselenides dyestuffs . Der Pharma Chemica. 6, 186-193 (2014).
# [7] = Bleomycin-induced DNA damage, DPPH and ABTS in vitro radical scavenging assays; settings: DPPH, ABTS assays
# From the text: as §1, §4
# The assay was performed according to the reported method with minor modifications. […] The activity of test compounds was evaluated as malondialdehyde equivalents. Thiobarbituric acid reactive substances, which arose from deoxyribose degradation of DNA were assessed. […] After cooling in ice water, the mixture was then shaken and centrifuged and the extent of DNA damage was measured by an increase in absorbance at […]
# a ascorbic acid is used as a standard for antioxidant activity; values are means of 3 replicates; b not detected. […]
# The hydrogen atom or electron donation ability of the corresponding compounds was measured by estimating the bleaching of the purple color of a methanolic solution of DPPH. […] After 30 min of incubation in the dark, the absorbance was read against a blank at 517 nm. […] The radical scavenging activity was calculated using the following equ ation : I% = (Ablank- […]
# [8] = tested on: HepG2; set-up: method as in PMID 29864687, doi:10.1016/j.arabjc.2021.103051; settings: read-out: IC50 (cytotoxic activity against HepG2); cited from earlier work
# [9] = tested on: MCF-7; set-up: method as in PMID 29864687, doi:10.1016/j.arabjc.2021.103051; settings: read-out: IC50 (cytotoxic activity against MCF-7); cited from earlier work
compound,measurement,setting,value
CC1=C([Se]c2ccc(N)cc2)C(=O)c2ccccc2C1=O [Compound 4],IC50,[1],27 µM
same,IC50 (viability of 158JP cells),"[2]; 0, 1, 10, 20, 50, 100 µM",no growth inhibition was observed
same,Effect on ROS level / H2-DCF intensity (in words),[3],pronounced pro-oxidant activity
same,"H2-DCFDA assay (% of control), ROS production",[3]; C1 (10 µM),700 ± 143 % of control
same,"H2-DCFDA assay (% of control), ROS production",[3]; C2 (20 µM),854 ± 135 % of control
same,"H2-DCFDA assay (% of control), ROS production","[3]; C3 (50 µM), vitamin E 50 µM",935 ± 307 % of control
same,Effect on O2− production in DHE assay (in words),"[4]; 158 N cells, 0–50 μM",promote the production of O2^−
same,"DHE assay (% of positive cells), superoxide anion production",[4]; C1 (10 µM),264 ±25 % of positive cells
same,"DHE assay (% of positive cells), superoxide anion production",[4]; C2 (20 µM),406±29 % of positive cells
same,"DHE assay (% of positive cells), superoxide anion production","[4]; C3 (50 µM), vitamin E 50 µM",417±31 % of positive cells
same,Bleomycin-dependent DNA damage assay (Abs.),[5],483
same,"Bleomycin-dependent DNA damage, % of Vitamin C",[5],48.8%
same,GPx-like activity (in words),[6],moderate GPx-like activity
same,Pro-oxidant properties compared to vitamin C,[7],up to 60%
same,IC50,[8],0.9 µM
same,IC50,[9],14.7 µM
"O=C1O[C@H]([C@@H](O)CO)C(O)=C1O [Vit.C, L-ascorbic acid, reference compound]",Bleomycin-dependent DNA damage assay (Abs.),[5],989
same,"Bleomycin-dependent DNA damage, % of Vitamin C",[5],100%
"CC(=O)Nc1ccc([Se]C2=C(C)C(=O)c3ccccc3C2=O)cc1 [Compound 5, N-(4-((3-Methyl-1,4-dioxo-1,4-dihydronaphthalen-2-yl)selanyl)phenyl)acetamide]",IC50,[1],11 µM
same,Effect on ROS level / H2-DCF intensity (in words),[3],decrease the H2-DCF intensity; also recorded: decreased the ROS level
same,"H2-DCFDA assay (% of control), ROS production",[3]; C1 (10 µM),7 ± 2 % of control
same,"H2-DCFDA assay (% of control), ROS production",[3]; C2 (20 µM),5 ± 1 % of control
same,"H2-DCFDA assay (% of control), ROS production","[3]; C3 (50 µM), vitamin E 50 µM",6 ± 1 % of control
same,"DHE assay (% of positive cells), superoxide anion production",[4]; C1 (10 µM),109±12 % of positive cells
same,"DHE assay (% of positive cells), superoxide anion production",[4]; C2 (20 µM),121 ±1 % of positive cells
same,"DHE assay (% of positive cells), superoxide anion production","[4]; C3 (50 µM), vitamin E 50 µM",120 ±4 % of positive cells
same,Bleomycin-dependent DNA damage assay (Abs.),[5],581
same,"Bleomycin-dependent DNA damage, % of Vitamin C",[5],58.8%
same,GPx-like activity (in words),[6],moderate GPx-like activity
same,Pro-oxidant properties compared to vitamin C,[7],up to 60%
"CC(C)CCC[C@@H](C)[C@H]1CC[C@H]2[C@@H]3C(=O)C=C4C[C@@H](O)CC[C@]4(C)[C@H]3CC[C@]12C [Compound 7kc, 7-ketocholesterol, reference compound]",IC50,[1],37 µM
same,IC50,"[2]; Mus musculus, 0, 1, 10, 20, 50, 100 µM, read-out: IC50 (viability of 158JP cells)",74 µM
VITAMINE E [reference compound],"H2-DCFDA assay (% of control), ROS production","[3]; C3 (50 µM), vitamin E 50 µM",94 ± 5 % of control
same,"DHE assay (% of positive cells), superoxide anion production","[4]; C3 (50 µM), vitamin E 50 µM",74± 1 % of positive cells

# Source: publication PMC8910872, “A Competition between Hydrogen, Stacking, and Halogen Bonding in N-(4-((3-Methyl-1,4-dioxo-1,4-dihydronaphthalen-2-yl)selanyl)phenyl)acetamide: Structure, Hirshfeld Surface Analysis, 3D Energy Framework Approach, and DFT Calculation” (International Journal of Molecular Sciences, 2022)
